Entries after “also recorded” stand apart in the source; their conditions may differ.
Legend:
[1] = tested on: AGT-170 cells; assay: Phenotypic cell based AGT/peroxisome co-localization high content assay (Pearson's colocalization coefficient), AGT-170 cells; set-up: species or system Chinese hamster; conditions: for % rescue (normalized AGT co-localization): pilot screen, 1536 well, FIG. 3, normalized to AGT-mi (high) and AGT-170 (low) DMSO controls, 4 μM final stated for pilot screen
Experimental: After an overnight incubation time at 37 C, 95% relative humidity and 5% CO2, cells were treated with DMSO or glycerol at different concentrations. After 2 days, cells were fixed with 4% paraformaldehyde, washed 3 times with PBS and permeabilized for 10-30 min with 0.1% Triton X-100 in PBS (PBS-TX). Cells were then stained with a guinea pig anti-AGT “A1” antibody (1:10,000) and a rabbit anti-PMP70 antibody (Ab3421, 1:500) in PBS-TX containing 0.5% goat serum. After 3 PBS washes, anti-rabbit AF488 and anti-guinea pig AF546 secondary antibodies (both at 1:10,000), as well as Hoeschst at 10 ug/mL were added to each well. Images were acquired with a 20× objective on the CellInsight (Cellomics). Puncta labeled with the anti-PMP70 antibody (labeling peroxisomes) and the anti-AGT antibody are detected in the green and red channels, respectively. Colocalization of the two populations of puncta was determined via calculation of the Pearson Colocalization Coefficient using Cellomics' “Colocalization” BioApplication. Here, miAGT cells are non-mutant AGT expressing CHO cells while the mutant AGT cells are references as 170s. The concentration of glycerol used in […] is listed in both the bar graph and the scatterplot. 4 replicates per condition were done and Z′ and S:B are calculated from the untreated AGT 170 cells versus the miAGT cells.
384-well plate assay protocol. Briefly, AGT-170 cells (and AGTmi cells that serve as a positive control) were seeded in black, square, IQ™ 100 μ384-well plates (Aurora, Brooks, Chelmsford, Mass.) at 500 cells/wells using a Flying Reagent Dispenser (FRD, Beckman Coulter, Brea, Calif.). After an overnight incubation at 37° C., 95% relative humidity (RH) and 5% CO2, cells were treated with 100 nL test compounds or DMSO for the positive and negative wells with a pintool transfer unit (GNF). Plates were then placed in an incubator for three days at 37° C., 95% RH and 5% CO2, immunostained and acquired on a high content imager as described below.
Immunostaining. Following treatment and incubation as described above, cells were fixed by the addition of 2× fixation solution (8% paraformaldehyde-PFA) using a FRD. Plates were then washed 3 times with PBS on the Squirt microplate washer using a 12° nozzle tilt and 15 PSI pressure according to the user's manual for washing normal binding cells in 384-well plate format (Brook, Chelmsford, Mass.). Cells were then permeabilized by dispensing a solution of 0.1% Triton X-100 in PBS (PBS-TX) and incubated for 10-30 minutes. Next, cells were stained with a guinea pig anti-AGT “A1” antibody (Danpure's Lab, London, UK; 1:10,000) and a rabbit anti-PMP70 antibody (Abcam, Cambridge, Mass.; 1:500) in PBS-TX containing 0.5% goat serum. After 3 PBS washes, anti-rabbit AF488 and anti-guinea pig AF546 secondary antibodies (Molecular Probes, Eugene, Oreg.; both at 1:10,000), as well as Hoechst at 10 μg/mL were added to each well. Thirty minutes later, plates were washed 3 times, filled with 50 μL/well of PBS and sealed with black tape.
Image acquisition and analysis. Plates were read and images acquired with the CellInsight high content reader (Thermo Fisher Scientific, Pittsburgh, Pa.) using a 20× objective. A detailed and illustrated description of the image acquisition and analysis is presented FIGS. 1A to 1H. A maximum of 9 fields of view per well were acquired, yielding an average of ≈700 cells detected. The nuclear stain channel (Hoechst, 386 nm, 9.8 milliseconds exposure time) was used to focus on the cell layer. Puncta labeled with the anti-PMP70 antibody (labeling peroxisomes) and the anti-AGT antibody were acquired in the green (485 nm, 40 milliseconds exposure) and red (549 nm, 15 milliseconds exposure) channels, respectively. Nuclei were detected using the fixed threshold method with an intensity threshold of 300. Next, a cytoplasmic region of interest was created around each nucleus by creating a ring with a distance of 1 pixel from the nucleus and a width of 8 pixels. […]

[2] = tested on: CHO cells; assay: Cytotoxicity / cell viability seen in the high content assay (HCS images); assay type: cell-based, Chinese hamster
Experimental: In order to assess the ability to induce and detect an increase in the Pearson's colocalization coefficient, both AGTmi and AGT-170 cells were treated with glycerol, which is a viscous polyol compound known to enhance the stability of proteins in solution. This co-solvent shifts the native protein to more compact states and inhibits protein-protein aggregation while proteins are being refolded during biological synthesis. […] Concentrations of glycerol higher than 5% affected cell viability and prevented accurate determination of the Pearson's colocalization coefficient; for these reasons, they were avoided. To probe the robustness of the assay, the glycerol titration assay was repeated on two separate plates. […] The Z′-factor, a statistical measurement indicative of HTS-readiness, was calculated between the AGT-170 cells in absence and presence of 5% glycerol and found to be 0.58, and at 0.81 between untreated AGT-170 and AGTmi cells.
Fresh powders, solvated in DMSO, were obtained and reformatted as ten point three fold serial dilutions and proceeded to test them in the same assay as described above. […] All data was imported into the Scripps database, assessed for quality control in terms of Z′, S:B and CV (i.e., quality controlled), and curves were fitted using a 4-parameter algorithm without constraining the top or bottom asymptote. […]

[3] = tested on: AGTmi cells; assay: AGT/peroxisome co-localization high content assay, AGTmi cells, glycerol treatment; assay type: cell-based, Chinese hamster
Experimental: After an overnight incubation time at 37 C, 95% relative humidity and 5% CO2, cells were treated with DMSO or glycerol at different concentrations. After 2 days, cells were fixed with 4% paraformaldehyde, washed 3 times with PBS and permeabilized for 10-30 min with 0.1% Triton X-100 in PBS (PBS-TX). Cells were then stained with a guinea pig anti-AGT “A1” antibody (1:10,000) and a rabbit anti-PMP70 antibody (Ab3421, 1:500) in PBS-TX containing 0.5% goat serum. After 3 PBS washes, anti-rabbit AF488 and anti-guinea pig AF546 secondary antibodies (both at 1:10,000), as well as Hoeschst at 10 ug/mL were added to each well. Images were acquired with a 20× objective on the CellInsight (Cellomics). Puncta labeled with the anti-PMP70 antibody (labeling peroxisomes) and the anti-AGT antibody are detected in the green and red channels, respectively. Colocalization of the two populations of puncta was determined via calculation of the Pearson Colocalization Coefficient using Cellomics' “Colocalization” BioApplication. […] 4 replicates per condition were done and Z′ and S:B are calculated from the untreated AGT 170 cells versus the miAGT cells.
Image acquisition and analysis. Plates were read and images acquired with the CellInsight high content reader (Thermo Fisher Scientific, Pittsburgh, Pa.) using a 20× objective. […]

[4] = fresh powders, ten point three fold serial dilutions, 25 uM highest concentration, FIG. 5

26-Deoxymonensin B
% rescue (normalized AGT co-localization) [1]: 73%

CC(NCCC(c1ccccc1)c1ccccc1)c1ccccc1 (stereo not shown) [Fendiline]
Activity in concentration response curves [1, 4]: inactive; also recorded: did not show significant activity
Toxicity by eye when observing HCS images ([2]; concentration response test, FIG. 5 and FIG. 6): appears toxic at higher concentrations; also recorded: appeared toxic at 10 uM

CC[C@@]1([C@@H]2O[C@@H]([C@H]3O[C@@](O)(CO)[C@H](C)C[C@@H]3C)C[C@@H]2C)CC[C@H]([C@]2(C)CC[C@]3(C[C@H](O)[C@@H](C)[C@@H]([C@@H](C)[C@@H](OC)[C@H](C)C(=O)O)O3)O2)O1 [Monensin]
EC50 potency from concentration response curves [1, 4]: low micromolar potency
% rescue (normalized AGT co-localization) [1]: 84%

OCC(O)CO [glycerol]
Effect on AGT mutant (colocalization with peroxisomes) ([1]; 1536-well plates, 2 days treatment, FIG. 1): stabilizing the AGT mutant
fold increase of Pearson's colocalization coefficient ([1]; AGT-170 cells, glycerol treatment): 1.91 fold
Pearson's colocalization coefficient after glycerol treatment ([1]; AGT-170 cells, increasing concentrations of glycerol, n=4, untreated 0.41±0.01): 0.80±0.04
Concentration that affected cell viability ([2]; glycerol titration, prevented accurate determination of the Pearson's coefficient): higher than 5%
fold increase of Pearson's values [3]: ~1.10 fold
